# Results published in patent US20130150434A1 (SOMAXON PHARMACEUTICALS, INC., priority 2006, published 2013).
# Assays:
# [1] = system: chronic primary insomnia patients with sleep maintenance difficulties; test: Phase III study of doxepin, rebound insomnia by PSG during the 2-day discontinuation period; format: in vivo, human; conditions: for WASO (rebound insomnia analysis), Median: Baseline = worst WASO value of Nights −6 and −5; for WASO (rebound insomnia analysis), Mean (SD): Baseline = worst WASO value of Nights −6 and −5 from Visit 3; for WASO, Change from Baseline to Visit 7, Night 36, Median / WASO, Change from Baseline to Visit 7, Night 37, Median / WASO, Change from Baseline to Visit 7, Night 36, Mean (SD) / WASO, Change from Baseline to Visit 7, Night 37, Mean (SD): discontinuation
# Description: The term “rebound insomnia” refers to the common occurrence that a person may have more trouble sleeping the first few nights after a sedative medicine is stopped than before starting the medicine. After more than a few days' use, discontinuing a hypnotic or sedative medication can make the original sleep problem worse and can cause an increase anxiety. Rebound insomnia may be measured as the mean change in mean wake time after sleep onset (WASO) from baseline to the first night of discontinuation.
# Patients were discharged from the sleep center after all final study-related procedures had been completed on the Final Study Day (Day 38, Early Termination [ET]).
# Safety: Safety was assessed based on AEs, clinical laboratory tests (hematology, serum chemistry, and urinalysis), vital signs, physical examinations, neurological assessments, 12-lead ECGs, and ratings of hangover/residual effects (digit-symbol substitution test (DSST), symbol copying test (SCT), and the visual analog scale (VAS) for sleepiness), assessment of rebound insomnia using PSG recordings during the discontinuation period, and withdrawal symptoms using the benzodiazepine withdrawal symptom questionnaire (BWSQ).
# [2] = system: chronic primary insomnia patients with sleep maintenance difficulties; test: Phase III study of doxepin, subjective assessments by morning questionnaire (sWASO, LSO, sTST); conditions: ITT; for LSO (subjective latency to sleep onset), Mean (SD) / sTST (subjective total sleep time), Mean (SD) / sTST, Median: Baseline (mean of Days −5 and −4)
# Description: Patients with at least a 3-month history of primary insomnia, according to Diagnostic and Statistical Manual of Mental Disorders, Fourth Edition Text Revision (DSM-IV-TR)-defined primary insomnia were enrolled.
# After the PSG Screening and Baseline periods, patients began a 35-day double-blind treatment period during which they were given study drug supplies at each scheduled visit (Visits 4, 5, and 6). The scheduled study visits consisted of two consecutive nights of 8-hour PSG recording in the sleep center and next day assessments to assess sedative efficacy. Patients were asked to complete hangover/residual effects assessments, morning and evening questionnaires, and the Benzodiazepine Withdrawal Symptom Questionnaire (BWSQ) at each of these visits.
# Subjective Variables: Subjective assessments included data obtained on Days 2, 16, and 30, and included subjective TST (sTST), subjective WASO (sWASO), latency to sleep onset (LSO), subjective NAASO (sNAASO), and sleep quality (all assessed by a morning questionnaire), daytime functioning (assessed by an evening questionnaire), average nightly sTST during at-home administration (5 days before the PSG visit), CGI rating scale for Severity and Therapeutic Effect completed by the clinician and patient, and a measure of insomnia severity (assessed by ISI).
# Methods used to analyze other endpoints were the same as those used to analyze WASO. For LPS, latency to REM sleep, latency to Stage 2 sleep, and LSO, data were expected to be log-normally distributed and were analyzed using log-transformed values (base 10). The safety data were analyzed primarily using descriptive statistical methods.
# All efficacy analyses were performed on the Intent-to-treat (ITT) analysis set. […] Data were analyzed as randomized and based on observed cases.
# [3] = Doxepin HCl 3 mg group, Night 36, N = 67 evaluable
# [4] = Doxepin HCl 3 mg group, Night 36 and Night 37, N = 67 evaluable
# [5] = Doxepin HCl 3 mg group, Visit 7, Night 37 (discontinuation)
# [6] = Doxepin HCl 6 mg group, Night 36, N = 68 evaluable
# [7] = Doxepin HCl 6 mg group, Night 36 and Night 37, N = 68 evaluable
# [8] = Doxepin HCl 6 mg group, Visit 7, Night 37 (discontinuation)
compound,measurement,setting,value
"CN(C)CCC=C1c2ccccc2COc2ccccc21 [Doxepin, 11-(3-dimethylaminopropylidene)-6,11-dihydrodibenzo (b,e)oxepin]",Rebound insomnia (mean change in mean WASO from baseline to the first night of discontinuation),"[1]; 3 mg and 6 mg, 2-day discontinuation period following abrupt discontinuation of 35 nights of treatment",no rebound insomnia
same,Largest percentage of patients experiencing rebound effects,"[1]; 3 mg group at night 36, as measured by mean change in WASO",15%
same,"WASO (rebound insomnia analysis), Median",[1]; Doxepin HCl 3 mg group,79.5 min
same,"WASO (rebound insomnia analysis), Mean (SD)",[1]; Doxepin HCl 3 mg group,83.5 (41.35) minutes
same,"Rebound insomnia frequency: patients with LPS change from Baseline ≧20 minutes at Visit 7, count (%)",[1]; [3],7 (10%)
same,"Rebound insomnia frequency: patients with TST change from Baseline ≦−30 minutes at Visit 7, count (%)",[1]; [3],9 (13%)
same,"Rebound insomnia frequency: patients with WASO change from Baseline ≧35 minutes at Visit 7, count (%)",[1]; [3],10 (15%)
same,"Rebound insomnia frequency: patients with LPS change from Baseline ≧20 minutes at Visit 7, count (%)",[1]; [4],3 (4%)
same,"Rebound insomnia frequency: patients with TST change from Baseline ≦−30 minutes at Visit 7, count (%)",[1]; [4],3 (4%)
same,"Rebound insomnia frequency: patients with WASO change from Baseline ≧35 minutes at Visit 7, count (%)",[1]; [4],1 (1%)
same,"WASO, Median","[1]; Doxepin HCl 3 mg group, Visit 7, Night 36 (discontinuation)",50.5 min
same,"WASO, Mean (SD)","[1]; Doxepin HCl 3 mg group, Visit 7, Night 36 (discontinuation, single-blind placebo after 35 nights of treatment)",65.8 (48.72) minutes
same,"WASO, Mean (SD)",[1]; [5],58.4 (42.76) minutes
same,"WASO, Median",[1]; [5],48.8 min
same,"WASO, Change from Baseline to Visit 7, Night 36, Median",[1]; Doxepin HCl 3 mg group,-22.0 min
same,"WASO, Change from Baseline to Visit 7, Night 37, Median",[1]; Doxepin HCl 3 mg group,-20.8 min
same,"WASO, Change from Baseline to Visit 7, Night 36, Mean (SD)","[1]; Doxepin HCl 3 mg group, 95% CI (−30.28, −6.57)",−18.4 (48.60) minutes
same,"WASO, Change from Baseline to Visit 7, Night 37, Mean (SD)","[1]; Doxepin HCl 3 mg group, 95% CI (−35.26, −14.11)",−24.7 (43.02) minutes
same,"WASO (rebound insomnia analysis), Median",[1]; Doxepin HCl 6 mg group,72.5 min
same,"WASO (rebound insomnia analysis), Mean (SD)",[1]; Doxepin HCl 6 mg group,78.4 (40.37) minutes
same,"Rebound insomnia frequency: patients with LPS change from Baseline ≧20 minutes at Visit 7, count (%)",[1]; [6],8 (12%)
same,"Rebound insomnia frequency: patients with TST change from Baseline ≦−30 minutes at Visit 7, count (%)",[1]; [6],6 (9%)
same,"Rebound insomnia frequency: patients with WASO change from Baseline ≧35 minutes at Visit 7, count (%)",[1]; [6],7 (10%)
same,"Rebound insomnia frequency: patients with LPS change from Baseline ≧20 minutes at Visit 7, count (%)",[1]; [7],2 (3%)
same,"Rebound insomnia frequency: patients with TST change from Baseline ≦−30 minutes at Visit 7, count (%)",[1]; [7],2 (3%)
same,"Rebound insomnia frequency: patients with WASO change from Baseline ≧35 minutes at Visit 7, count (%)",[1]; [7],3 (4%)
same,"WASO, Median","[1]; Doxepin HCl 6 mg group, Visit 7, Night 36 (discontinuation)",46.0 min
same,"WASO, Mean (SD)","[1]; Doxepin HCl 6 mg group, Visit 7, Night 36 (discontinuation, single-blind placebo after 35 nights of treatment)",55.9 (40.26) minutes
same,"WASO, Mean (SD)",[1]; [8],56.0 (42.68) minutes
same,"WASO, Median",[1]; [8],49.0 min
same,"WASO, Change from Baseline to Visit 7, Night 36, Median",[1]; Doxepin HCl 6 mg group,-16.5 min
same,"WASO, Change from Baseline to Visit 7, Night 37, Median",[1]; Doxepin HCl 6 mg group,-20.0 min
same,"WASO, Change from Baseline to Visit 7, Night 36, Mean (SD)","[1]; Doxepin HCl 6 mg group, 95% CI (−34.99, −12.27)",−23.6 (46.93) minutes
same,"WASO, Change from Baseline to Visit 7, Night 37, Mean (SD)","[1]; Doxepin HCl 6 mg group, 95% CI (−36.26, −12.38)",−24.3 (47.41) minutes
same,"LSO (subjective latency to sleep onset), Mean (SD)",[2]; Doxepin HCl 3 mg group,61.4 (39.43) minutes
same,"sTST (subjective total sleep time), Mean (SD)",[2]; Doxepin HCl 3 mg group,330.0 (63.23) minutes
same,"sTST, Median",[2]; Doxepin HCl 3 mg group,330.0 min
same,"sTST, Mean (SD)","[2]; Doxepin HCl 3 mg, Visit 4, Day 2, p 0.0169 vs placebo",361.8 (64.03) minutes
same,"LSO, Mean (SD)","[2]; Doxepin HCl 3 mg, Visit 4, Day 2, p 0.2296 vs placebo",50.3 (36.73) minutes
same,"sTST, Mean (SD)","[2]; Doxepin HCl 3 mg, Visit 5, Day 16, p 0.3260 vs placebo",361.0 (67.22) minutes
same,"LSO, Mean (SD)","[2]; Doxepin HCl 3 mg, Visit 5, Day 16, p 0.9838 vs placebo",52.9 (35.17) minutes
same,"LSO, Mean (SD)","[2]; Doxepin HCl 3 mg, Visit 6, Day 30, p 0.3567 vs placebo",48.9 (34.71) minutes
same,"sTST, Mean (SD)","[2]; Doxepin HCl 3 mg, Visit 6, Day 30, p 0.9972 vs placebo",360.7 (68.72) minutes
same,"LSO (subjective latency to sleep onset), Mean (SD)",[2]; Doxepin HCl 6 mg group,64.0 (43.45) minutes
same,"sTST (subjective total sleep time), Mean (SD)",[2]; Doxepin HCl 6 mg group,339.3 (61.45) minutes
same,"sTST, Median",[2]; Doxepin HCl 6 mg group,330.0 min
same,"sTST, Mean (SD)","[2]; Doxepin HCl 6 mg, Visit 4, Day 2, p 0.0256 vs placebo",369.0 (78.39) minutes
same,"LSO, Mean (SD)","[2]; Doxepin HCl 6 mg, Visit 4, Day 2, p 0.0960 vs placebo",55.7 (56.96) minutes
same,"sTST, Mean (SD)","[2]; Doxepin HCl 6 mg, Visit 5, Day 16, p 0.1611 vs placebo",371.5 (72.06) minutes
same,"LSO, Mean (SD)","[2]; Doxepin HCl 6 mg, Visit 5, Day 16, p 0.2689 vs placebo",48.7 (42.35) minutes
